Data from publication PMC9133015 (Nature Communications, 2022).
Where “and” joins values, the source holds several entries; their conditions need not be identical. Equal values may be shown once. Read-outs that look alike come from different tables or passages of the source.

Target: T1, DYRK2 (Homo sapiens, UniProt Q92630)
T1 construct: purchased Reaction Biology Corporation (assay service)
T1 sequence (Q92630 1-601): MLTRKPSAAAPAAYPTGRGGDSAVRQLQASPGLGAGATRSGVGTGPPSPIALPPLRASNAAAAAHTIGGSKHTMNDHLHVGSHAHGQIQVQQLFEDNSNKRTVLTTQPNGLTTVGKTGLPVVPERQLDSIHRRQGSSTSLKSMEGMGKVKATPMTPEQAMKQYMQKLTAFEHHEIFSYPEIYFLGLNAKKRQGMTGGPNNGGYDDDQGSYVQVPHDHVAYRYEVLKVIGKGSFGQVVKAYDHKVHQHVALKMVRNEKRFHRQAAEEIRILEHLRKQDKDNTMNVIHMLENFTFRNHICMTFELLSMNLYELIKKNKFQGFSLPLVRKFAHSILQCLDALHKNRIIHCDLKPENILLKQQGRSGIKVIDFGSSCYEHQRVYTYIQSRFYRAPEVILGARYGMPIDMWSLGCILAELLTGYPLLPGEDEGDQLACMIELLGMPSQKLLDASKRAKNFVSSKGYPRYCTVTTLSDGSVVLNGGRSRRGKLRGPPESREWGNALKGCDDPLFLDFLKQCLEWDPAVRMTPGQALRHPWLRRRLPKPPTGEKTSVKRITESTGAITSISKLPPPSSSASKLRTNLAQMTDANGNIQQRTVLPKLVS
Experiment: DYRKs kinase activity assay (33P-ATP, DYRKtide substrate): DYRK2
Assay type: biochemical

[1] = DYRK2 kinase, Conc. 0.000508053 µM, duplicate values
[2] = DYRK2 kinase, Conc. 0.00152416 µM, duplicate values
[3] = DYRK2 kinase, Conc. 0.00457247 µM, duplicate values
[4] = DYRK2 kinase, Conc. 0.0137174 µM, duplicate values
[5] = DYRK2 kinase, Conc. 0.0411523 µM, duplicate values
[6] = DYRK2 kinase, Conc. 0.123457 µM, duplicate values
[7] = DYRK2 kinase, Conc. 0.37037 µM, duplicate values
[8] = DYRK2 kinase, Conc. 1.11111 µM, duplicate values
[9] = DYRK2 kinase, Conc. 3.33333 µM, duplicate values
[10] = DYRK2 kinase, Conc. 10 µM, duplicate values
[11] = Supplementary Table 1, read-out: IC50 (μM), DYRK2 kinase

## CC(C)c1ccc2c(c1)C(N1CCN(CCc3ccc(F)cc3)CC1)Cc1ccc(F)cc1S2 (stereo not shown) [Compound 1]
[1]
  % Inhibition: -1.87% and -4.38%
[2]
  % Inhibition: -4.34% and -6.85%
[3]
  % Inhibition: -8.65% and -6.11%
[4]
  % Inhibition: -12.64% and -10.09%
[5]
  % Inhibition: -8.55% and -6.02%
[6]
  % Inhibition: -2.02% and 0.35%
[7]
  % Inhibition: 1.52% and 4.04%
[8]
  % Inhibition: 8.35% and 5.81%
[9]
  % Inhibition: 1.80% and 0.0379%
[10]
  % Inhibition: 28.07% and 27.88%
[11]
  IC50: > 10 µM

## O=C(CSc1nnc2sc3ccccc3n12)N1CCN(C(=O)CSc2nnc3sc4ccccc4n23)CC1 [Compound 4]
[1]
  % Inhibition: 0.98% and -1.30%
[2]
  % Inhibition: 14.00% and 9.63%
[3]
  % Inhibition: 3.52% and 1.28%
[4]
  % Inhibition: 7.11% and 4.92%
[5]
  % Inhibition: 13.04% and 8.66%
[6]
  % Inhibition: 25.55% and 23.66%
[7]
  % Inhibition: 22.22% and 20.28%
[8]
  % Inhibition: 26.61% and 24.74%
[9]
  % Inhibition: 20.66% and 23.29%
[10]
  % Inhibition: 27.83% and 25.98%
[11]
  IC50: > 10 µM

## COc1cc(-c2nnc(CSc3nc4c(OC)ccc(OC)c4[nH]3)o2)cc(OC)c1OC [Compound 15]
[1]
  % Inhibition: -1.53% and -4.09%
[2]
  % Inhibition: -4.76% and -6.22%
[3]
  % Inhibition: -1.13% and -0.37%
[4]
  % Inhibition: -10.53% and -12.16%
[5]
  % Inhibition: -9.17% and -11.37%
[6]
  % Inhibition: -2.00% and -9.98%
[7]
  % Inhibition: -8.29% and -9.76%
[8]
  % Inhibition: -3.66% and -9.01%
[9]
  % Inhibition: 0.93% and -1.24%
[10]
  % Inhibition: 16.42% and 14.23%
[11]
  IC50: > 10 µM

## O=C(c1cccc(Cn2cc(Br)c([N+](=O)[O-])n2)c1)N1CCN(C(=O)c2ccco2)CC1 [Compound 8]
[1]
  % Inhibition: -2.60% and -0.07%
[2]
  % Inhibition: -3.65% and -2.08%
[3]
  % Inhibition: -3.85% and -2.28%
[4]
  % Inhibition: -16.34% and -14.56%
[5]
  % Inhibition: -10.92% and -10.74%
[6]
  % Inhibition: -6.09% and -4.48%
[7]
  % Inhibition: -6.00% and -2.89%
[8]
  % Inhibition: -5.16% and -3.57%
[9]
  % Inhibition: 2.31% and 3.77%
[10]
  % Inhibition: 17.16% and 18.38%
[11]
  IC50: > 10 µM

## Cn1c(=O)c2ncn(CC(=O)Nc3ccc4oc(-c5ccc(Cl)cc5Cl)nc4c3)c2n(C)c1=O [Compound 10]
[1]
  % Inhibition: -7.03% and -8.01%
[2]
  % Inhibition: -4.24% and -5.18%
[3]
  % Inhibition: -3.26% and -1.51%
[4]
  % Inhibition: -9.75% and -7.91%
[5]
  % Inhibition: -10.96% and -9.20%
[6]
  % Inhibition: 0.34% and -3.30%
[7]
  % Inhibition: 1.49% and 3.01%
[8]
  % Inhibition: 15.95% and 17.31%
[9]
  % Inhibition: 6.96% and 8.47%
[10]
  % Inhibition: 22.24% and 25.76%
[11]
  IC50: > 10 µM

## Cc1nc2ccc(-c3nc(Nc4ccc(C(=O)N5CCNCC5)cn4)ncc3F)cc2s1.Cl [Compound 24]
[1]
  % Inhibition: 2.20% and 10.58%
[2]
  % Inhibition: 4.62% and 14.25%
[3]
  % Inhibition: 24.52%
  inhibition at 0.00457247 µM: 19.2%
[4]
  % Inhibition: 39.86%
DYRK2 kinase, Conc. 0.0137174 µM, duplicate values, read-out: % Inhibition
  inhibition at 0.0137174 µM: 35.4%
[5]
  % Inhibition: 60.50%
DYRK2 kinase, Conc. 0.0411523 µM, duplicate values, read-out: % Inhibition
  inhibition at 0.0411523 µM: 61%
[6]
  % Inhibition: 75.45%
DYRK2 kinase, Conc. 0.123457 µM, duplicate values, read-out: % Inhibition
  inhibition at 0.123457 µM: 73%
[7]
  % Inhibition: 85.34%
DYRK2 kinase, Conc. 0.37037 µM, duplicate values, read-out: % Inhibition
  inhibition at 0.37037 µM: 86.1%
[8]
  % Inhibition: 90.57%
DYRK2 kinase, Conc. 1.11111 µM, duplicate values, read-out: % Inhibition
  inhibition at 1.11111 µM: 92%
[9]
  % Inhibition: 94.68%
DYRK2 kinase, Conc. 3.33333 µM, duplicate values, read-out: % Inhibition
  inhibition at 3.33333 µM: 95%
[10]
  % Inhibition: 98.21%
DYRK2 kinase, Conc. 10 µM, duplicate values, read-out: % Inhibition
  inhibition at 10 µM: 97%
read-out: DYRK2 IC50
  IC50: 0.027 µM

## Cc1ccc(CN(Cc2ccc(C=NNC(=O)c3c(C)nc4sccn34)o2)S(=O)(=O)c2ccc(C)cc2)cc1 [Compound 7]
[1]
  % Inhibition: -2.50% and -2.39%
[2]
  % Inhibition: -0.71% and 1.61%
[3]
  % Inhibition: 3.49% and 3.33%
[4]
  % Inhibition: 5.71% and 7.69%
[5]
  % Inhibition: -2.86% and -2.73%
[6]
  % Inhibition: 2.70% and 2.58%
[7]
  % Inhibition: 3.31% and 5.45%
[8]
  % Inhibition: -1.26% and -1.20%
[9]
  % Inhibition: 2.47% and 2.36%
[10]
  % Inhibition: 8.07% and 7.70%
[11]
  IC50: > 10 µM
